# Source: US7511068B2, “Mercaptoimidazoles as CCR2 receptor antagonists” (Janssen Pharmaceutica, N.V., priority 2003, dated 2009)
# pIC50: −log10 of the molar value.
# Biological target: T1, CCR2 receptor (Homo sapiens, UniProt P41597)
# T1 construct: host or cells: THP-1 human monocytic cell line
# T1 sequence (P41597 1-360 isoform P41597-2): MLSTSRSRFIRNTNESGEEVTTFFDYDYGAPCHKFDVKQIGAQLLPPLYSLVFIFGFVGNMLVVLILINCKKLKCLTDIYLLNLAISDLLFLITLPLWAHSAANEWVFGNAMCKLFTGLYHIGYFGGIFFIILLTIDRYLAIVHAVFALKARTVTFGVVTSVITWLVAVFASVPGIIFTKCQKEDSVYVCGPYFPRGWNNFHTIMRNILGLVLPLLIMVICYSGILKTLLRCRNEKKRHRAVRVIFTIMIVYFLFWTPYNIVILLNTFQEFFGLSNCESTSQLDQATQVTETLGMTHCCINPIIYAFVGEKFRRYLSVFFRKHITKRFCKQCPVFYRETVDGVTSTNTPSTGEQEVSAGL
# Test: Inhibition of MCP-1 induced Ca-flux in human THP-1 cells
# Type: cell-based
# Conditions: inhibition of specific MCP-1 (10^-7 M hMCP-1) induced Ca2+ flux in human THP-1 cells; pIC50 = -log IC50 (molar)
# Method: C. Pharmacological Example Inhibition of MCP-1 Induced Ca-flux in Human THP-1 Cells
# MCP-1 binding to the CCR2 receptor induces a rapid and transient intracellular release of Ca^2+ (secondary messenger) in several cell lines (Charo et al, PNAS 1994). Free Ca^2+ levels can be measured using a Ca^2+ sensitive dye. When the CCR2 receptor is blocked with a CCR2 receptor antagonist, the MCP-1 induced release of Ca^2+ is inhibited.
# Human THP-1 cells (monocytic cell line, ATCC TIB-202) were cultured in RPMI 1640 medium supplemented with 10% fetal calf serum (FCS), 1% L-Glutamine, penicillin (50 U/ml) and streptomycin (50 μg/ml) (all GIBCO BRL, Gent). After centrifugation, cells were loaded for 30 minutes with the Ca^2+ sensitive fluorescent dye Fluo-3 AM (Molecular Probes, Leiden, Netherlands) (2 million cells/ml in RPMI medium containing 4 μM Fluo-3 AM, 20 mM HEPES, 0.1% Bovine Serum Albumin (BSA) and 5 mM probenecid). Excess dye was removed by 3-fold washing with buffer (5 mM HEPES, 140 mM NaCl, 1 mM MgCl2, 5 mM KCl, 10 mM glucose, 2.5 mM probenecid, 1.25 mM CaCl2, 0.1% BSA; all further incubations were done in this buffer). Cells were plated at a density of 150 000 cells/well in dark-wall 96-well plates (Costar, Cambridge, Mass.) and sedimented by centrifugation (1 minute). The cells were pre-incubated for 20 minutes with test compound. Then, 10^−7 M hMCP-1 (Bachem, Bubendorf, Switserland) was added. Changes in intracellular free Ca^2+ concentration were measured using the Fluorescent Imaging Plate Reader (FLIPR, Molecular Devices, Munchen, Germany). Fluorescence was recorded every second from 10 seconds before the addition of the MCP-1 till 2 minutes after the addition (first minute: 60 records with 1 second intervals, second minute 20 records with 3 second intervals).
# The maximal fluorescence obtained during this time frame was used for further calculations.
# Table 4 reports pIC50 values obtained in the above-described test for compounds of formula (I). pIC50 defines −log IC50 wherein IC50 is the molar concentration of the test compound which inhibits 50% of specific MCP-1 induced Ca^2+ flux.
row,Compound,pIC50
1,CCC(c1ccc(F)c(C(F)(F)F)c1)n1c(C(=O)OC)cnc1S (stereo not drawn) [Compound 1],6.03
2,COC(=O)c1c[nH]c(=S)n1C(c1ccc(Cl)c(Cl)c1)C1CC1 (stereo not drawn) [Compound 2],5.67
3,CCC(c1ccc(F)c(C(F)(F)F)c1)n1c(S)nc(C(=O)OC)c1C(=O)OC (stereo not drawn) [Compound 3],7.76
4,COC(=O)c1[nH]c(=S)n(C(c2ccc(Cl)c(Cl)c2)C2CC2)c1C(=O)OC (stereo not drawn) [Compound 4],7.55
5,CCC(c1ccc(Cl)c(Cl)c1)n1c(C#N)c(C(=O)OC)[nH]c1=S (stereo not drawn) [Compound 5],7.40
6,CCC(c1ccc(Cl)c(Cl)c1)n1c(C(=O)OC)c(C)[nH]c1=S (stereo not drawn) [Compound 6],6.58
7,CCC(c1ccc(Cl)c(Cl)c1)n1c(C#N)cnc1S (stereo not drawn) [Compound 7],6.16
8,CCC(c1ccc(Cl)c(Cl)c1)n1c(C(N)=O)cnc1S (stereo not drawn) [Compound 8],7.46
9,CCC(c1ccc(F)c(F)c1)n1c(C(N)=O)cnc1S (stereo not drawn) [Compound 9],6.33
10,CCC(c1ccc(F)c(C(F)(F)F)c1)n1c(C(N)=O)cnc1S (stereo not drawn) [Compound 10],6.69
11,CCOC(=O)c1cnc(S)n1C(CC)c1ccc(F)c(C(F)(F)F)c1 (stereo not drawn) [Compound 12],6.46
12,CCC(c1ccc(Cl)c(Cl)c1)n1cc(C(=O)OC)nc1S (stereo not drawn) [Compound 14],6.45
13,CCC(c1ccc(Cl)c(Cl)c1)n1c(C(=O)OC)cnc1S (stereo not drawn) [Compound 15],6.72
14,CC[C@H](c1ccc(Cl)c(Cl)c1)n1c(C(=O)OC)cnc1S [Compound 16],5.99
15,CC[C@@H](c1ccc(Cl)c(Cl)c1)n1c(C(=O)OC)cnc1S [Compound 17],7.06
16,CCC(c1ccc(Cl)c(Cl)c1)n1c(S)nc(C(N)=O)c1C#N (stereo not drawn) [Compound 19],6.92
17,CCC(c1ccc(Cl)c(Cl)c1)n1c(S)nc(C(N)=O)c1C(N)=O (stereo not drawn) [Compound 20],7.25
18,CCC(c1ccc(F)c(F)c1)n1c(C(=O)OC)cnc1S (stereo not drawn) [Compound 21],5.99
19,CCC(c1ccc(Cl)c(Cl)c1)n1c(C(=O)O)cnc1S (stereo not drawn) [Compound 23],5.48
20,CCCC(c1cccc(Cl)c1)n1c(C(=O)OC)c[nH]c1=S (stereo not drawn) [Compound 24],6.05
21,CCCC(c1ccc(Cl)cc1)n1c(C(=O)OC)c[nH]c1=S (stereo not drawn) [Compound 25],5.45
22,COC(=O)c1c[nH]c(=S)n1C(C)c1ccc(Cl)cc1 (stereo not drawn) [Compound 31],5.43
23,COC(=O)c1cnc(S)n1C(C)c1ccc(Cl)c(Cl)c1 (stereo not drawn) [Compound 32],6.59
24,CCC(c1ccc(Cl)c(Cl)c1)n1c(C(=O)OC(C)C)cnc1S (stereo not drawn) [Compound 33],6.58

row,Compound,pIC50
1,CCC(c1ccc(Cl)c(Cl)c1)n1c(C(=O)NC)cnc1S (stereo not drawn) [Compound 34],6.66
2,CCCC(c1ccc(Cl)c(Cl)c1)n1c(C(=O)OC)cnc1S (stereo not drawn) [Compound 35],6.86
3,CCC(c1ccc(F)c(F)c1)n1c(C(=O)NC)cnc1S (stereo not drawn) [Compound 36],5.65
4,CCC(c1ccc(Cl)c(Cl)c1)n1c(S)nc(C(=O)OC)c1C(=O)OC (stereo not drawn) [Compound 37],8.01
5,CCC(c1ccc(F)c(F)c1)n1c(S)nc(C(=O)OC)c1C(=O)OC (stereo not drawn) [Compound 39],8.14
6,CCC(c1ccc(Cl)c(Cl)c1)n1c(C(=O)O)c(C(=O)O)[nH]c1=S (stereo not drawn) [Compound 40],5.86
7,CCC(c1ccc(C(F)(F)F)c(F)c1)n1c(C(=O)OC)cnc1S (stereo not drawn) [Compound 43],5.70
8,CCCCNC(=O)c1cnc(S)n1C(CC)c1ccc(F)c(F)c1 (stereo not drawn) [Compound 44],5.50
9,CCC(c1ccc(F)c(F)c1)n1c(C(=O)NCC(C)C)cnc1S (stereo not drawn) [Compound 45],5.61
10,COC(=O)c1[nH]c(=S)n(Cc2ccc(Cl)c(Cl)c2)c1C(=O)OC [Compound 47],7.45
11,CCC(c1ccc(C(F)(F)F)c(F)c1)n1c(S)nc(C(=O)OC)c1C(=O)OC (stereo not drawn) [Compound 48],7.05
12,CCC(c1ccc(F)c(C(F)(F)F)c1)n1c(C(=O)NC)c[nH]c1=S (stereo not drawn) [Compound 49],5.64
13,CCC(c1ccc(Cl)c(Cl)c1)n1cc(C(N)=O)[nH]c1=S (stereo not drawn) [Compound 51],5.75
14,CCC(c1ccc(Cl)c(Cl)c1)n1cc(C(=O)NC)[nH]c1=S (stereo not drawn) [Compound 52],5.09
15,CC(c1ccc(Cl)c(Cl)c1)n1c(C(N)=O)c[nH]c1=S (stereo not drawn) [Compound 54],5.96
16,COC(=O)c1[nH]c(=S)n(C(C)c2ccc(Cl)c(Cl)c2)c1C(=O)OC (stereo not drawn) [Compound 55],7.90
17,COC(=O)c1[nH]c(=S)n(C(c2ccccc2)c2ccc(Cl)c(Cl)c2)c1C(=O)OC (stereo not drawn) [Compound 56],6.69
18,CCC(c1ccc(Br)c(Br)c1)n1c(C(N)=O)c(C(N)=O)[nH]c1=S (stereo not drawn) [Compound 57],6.78
19,CCC(c1ccc(Cl)c(Cl)c1)n1c(C(N)=O)cnc1S (stereo not drawn) [Compound 59],7.36
20,CCC(c1ccc(F)c(C(F)(F)F)c1)n1c(C(=O)OCCO)cnc1S (stereo not drawn) [Compound 61],6.64
21,CCC(c1ccc(F)c(C(F)(F)F)c1)n1c(C(=O)OCC(=O)N(CC)CC)c[nH]c1=S (stereo not drawn) [Compound 62],5.99
22,CCC(c1ccc(Cl)c(Cl)c1)n1cc(C(=O)OCCO)[nH]c1=S (stereo not drawn) [Compound 63],5.99
23,CCC(c1ccc(F)c(C(F)(F)F)c1)n1c(C(=O)O)c[nH]c1=S (stereo not drawn) [Compound 67],5.63
24,CCC(c1ccc(Cl)c(Cl)c1)n1c(S)nc(C(=O)O)c1C(=O)OC (stereo not drawn) [Compound 68],6.08

row,Compound,pIC50
1,CCCC(c1ccc(Cl)c(Cl)c1)n1c(C(=O)NC)c(C(=O)NC)[nH]c1=S (stereo not drawn) [Compound 69],6.41
2,CCC(c1ccc(Cl)c(Cl)c1)n1c(C#N)c(C(=O)NC)[nH]c1=S (stereo not drawn) [Compound 70],6.59
3,COC(=O)c1[nH]c(=S)n(C(c2ccc(Cl)c(Cl)c2)C2CCCCC2)c1C(=O)OC (stereo not drawn) [Compound 73],6.36
4,CCC(c1ccc(Br)c(Br)c1)n1c(C(=O)O)c[nH]c1=S (stereo not drawn) [Compound 74],5.47
5,CCOC(=O)c1c(C)[nH]c(=S)n1C(CC)c1ccc(Cl)c(Cl)c1 (stereo not drawn) [Compound 75],6.58
6,CCC(c1ccc(Br)c(Br)c1)n1c(C(=O)OC)cnc1S (stereo not drawn) [Compound 76],6.59
7,O=c1[nH][nH]c(=O)c2c1[nH]c(=S)n2C(c1ccc(Cl)c(Cl)c1)C1CC1 (stereo not drawn) [Compound 77],6.48
8,COC(=O)c1cnc(S)n1C(C)(C)c1ccc(Cl)c(Cl)c1 [Compound 80],5.32
9,CCC(c1ccc(Cl)c(Cl)c1)n1c(C(C)=O)c[nH]c1=S (stereo not drawn) [Compound 81],6.88
10,CCC(c1ccc(Cl)c(Cl)c1)n1c(S)nc(CO)c1C(=O)OC (stereo not drawn) [Compound 85],6.82
11,CCC(c1ccc(Cl)c(Cl)c1)n1c(S)nc(C(N)=O)c1C(=O)OC (stereo not drawn) [Compound 86],7.30
12,CCC(c1ccc(Cl)c(Cl)c1)n1c(S)nc(C(=O)NC)c1C(=O)OC (stereo not drawn) [Compound 87],7.48
13,CCC(c1ccc(Cl)c(Cl)c1)n1c(S)nc(C(=O)O)c1C#N (stereo not drawn) [Compound 88],6.76
14,CCC(c1ccc(Cl)c(Cl)c1)n1c(S)nc(COC)c1C(=O)OC (stereo not drawn) [Compound 89],6.97
15,COC(=O)c1c(C(N)=O)[nH]c(=S)n1C(C)c1ccc(Cl)c(Cl)c1 (stereo not drawn) [Compound 90],6.88
16,CC(c1ccc(Cl)c(Cl)c1)n1cc(C(N)=O)[nH]c1=S (stereo not drawn) [Compound 91],5.09
17,COCC(c1ccc(Cl)c(Cl)c1)n1c(C(=O)OC)cnc1S (stereo not drawn) [Compound 94],6.51
18,CCC(c1ccc(Cl)c(Cl)c1)n1c(C(=O)NN)c[nH]c1=S (stereo not drawn) [Compound 95],6.61
19,CCC(c1ccc(Cl)c(Cl)c1)n1c(C(=O)OC)c(C(=O)NNC(C)=O)[nH]c1=S (stereo not drawn) [Compound 96],6.73
20,CC(c1ccc(Cl)c(Cl)c1)n1c(C(N)=O)c(C(N)=O)[nH]c1=S (stereo not drawn) [Compound 98],5.69
21,CCC(c1ccc(C)c(C)c1)n1c(C(=O)OC)c(C(=O)OC)[nH]c1=S (stereo not drawn) [Compound 99],6.46
22,COCC(c1ccc(Cl)c(Cl)c1)n1c(C(=O)OC)c(C(=O)OC)[nH]c1=S (stereo not drawn) [Compound 100],7.49
23,COCC(c1ccc(Cl)c(Cl)c1)n1c(C(N)=O)c[nH]c1=S (stereo not drawn) [Compound 104],7.07
24,CCC(c1ccc(Cl)c(Cl)c1)n1c(C(=O)NCCO)c[nH]c1=S (stereo not drawn) [Compound 105],6.89
